Molecules are shown by their SMILES. Where “and” joins values, the source holds several entries; their conditions need not be identical. Equal values may be shown once.

The assay deals with BDF1 mice, Adenocarcinoma 755 s.c., tumor weight T/C. Nature of the assay: NCI In Vivo Anticancer Drug Screen. Data for tumor model Adenocarcinoma 755 (subcutaneous) in B6D2F1 (BDF1) mice. To be noted: endpoint: mean tumor weight, higher = larger tumour. Put shortly: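 Readout: T/C, i.e. treated-group measurement over vehicle-control measurement. Endpoint is survival or tumor size in tumor-bearing mice given compound.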

[1] abbreviates: dose: 5.0 mg/kg/injection, schedule: Q01DX011 (ip), vehicle: carboxymethylcellulose (CMC).
The mark [2] stands for this setting: dose: 10.0 mg/kg/injection, schedule: Q01DX011 (ip), vehicle: carboxymethylcellulose (CMC).
Setting [3] is: dose: 20.0 mg/kg/injection, schedule: Q01DX011 (ip), vehicle: carboxymethylcellulose (CMC).
The mark [4] stands for this setting: dose: 25.0 mg/kg/injection, schedule: Q01DX011 (ip), vehicle: carboxymethylcellulose (CMC).
[5] abbreviates: dose: 15.0 mg/kg/injection, schedule: Q01DX011 (ip), vehicle: methylcellulose (MC).
Setting [6] is: dose: 30.0 mg/kg/injection, schedule: Q01DX011 (ip), vehicle: methylcellulose (MC).
Setting [7] is: dose: 60.0 mg/kg/injection, schedule: Q01DX011 (ip), vehicle: methylcellulose (MC).
The mark [8] stands for this setting: dose: 25.0 mg/kg/injection, schedule: Q01DX011 (ip), vehicle: methylcellulose (MC).
Where [9] appears, read: dose: 75.0 mg/kg/injection, schedule: Q01DX011 (ip), vehicle: methylcellulose (MC).
Where [10] appears, read: dose: 3.5 mg/kg/injection, schedule: Q01DX011 (ip), vehicle: methylcellulose (MC).

A word on the T/C: it is the ratio of treated to control. For the compound `CN(C)c1ccc2nc3ccc(=[N+](C)C)cc-3sc2c1`, the T/C under setting [1] is 51 % of control; the T/C (dose: 5.24 mg/kg/injection, schedule: Q01DX011 (ip), vehicle: carboxymethylcellulose (CMC)) was 69 % of control; the T/C (dose: 5.76 mg/kg/injection, schedule: Q01DX011 (ip), vehicle: carboxymethylcellulose (CMC)) was 103 % of control; the T/C under setting [2] is 99 % of control; the T/C (dose: 10.48 mg/kg/injection, schedule: Q01DX011 (ip), vehicle: carboxymethylcellulose (CMC)) is 109 % of control; the T/C (dose: 11.53 mg/kg/injection, schedule: Q01DX011 (ip), vehicle: carboxymethylcellulose (CMC)) was 97 % of control. Also, the T/C is 113 % of control under setting [3]; 100 % of control (dose: 20.95 mg/kg/injection, schedule: Q01DX011 (ip), vehicle: carboxymethylcellulose (CMC)); 123 % of control under setting [4]; 103 % of control (dose: 30.0 mg/kg/injection, schedule: Q01DX011 (ip), vehicle: carboxymethylcellulose (CMC)); 104 % of control (dose: 35.0 mg/kg/injection, schedule: Q01DX011 (ip), vehicle: carboxymethylcellulose (CMC)); 68 % of control (dose: 40.0 mg/kg/injection, schedule: Q01DX011 (ip), vehicle: carboxymethylcellulose (CMC)).
On to `CC(C)C(=O)OCC1OC(n2cnc3c(=S)nc(N)[nH]c32)C(OC(=O)C(C)C)C1OC(=O)C(C)C` (centres undefined), for which the T/C (dose: 1.5 mg/kg/injection, schedule: Q01DX011 (ip), vehicle: carboxymethylcellulose (CMC)) is 76 % of control and 79 % of control; the T/C (dose: 3.0 mg/kg/injection, schedule: Q01DX011 (ip), vehicle: carboxymethylcellulose (CMC)) was 43 % of control; the T/C (dose: 6.0 mg/kg/injection, schedule: Q01DX011 (ip), vehicle: carboxymethylcellulose (CMC)) is 25 % of control; the T/C (dose: 12.0 mg/kg/injection, schedule: Q01DX011 (ip), vehicle: carboxymethylcellulose (CMC)) is 18 % of control.
With `COC1=C(N)C(=O)c2nc(-c3nc(C(=O)O)c(C)c(-c4ccc(OC)c(OC)c4O)c3N)ccc2C1=O`, the T/C is, setting by setting: (dose: 0.02 mg/kg/injection, schedule: Q01DX011 (ip), vehicle: water) 72 % of control; (dose: 0.04 mg/kg/injection, schedule: Q01DX011 (ip), vehicle: water) 47 % of control; (dose: 0.08 mg/kg/injection, schedule: Q01DX011 (ip), vehicle: water) 55 % of control; (dose: 0.16 mg/kg/injection, schedule: Q01DX011 (ip), vehicle: water) 4 % of control; (dose: 0.25 mg/kg/injection, schedule: Q01DX006 (ip), vehicle: water) 41 % of control; (dose: 0.5 mg/kg/injection, schedule: Q01DX006 (ip), vehicle: water) 10 % of control. Moreover, the T/C is 36 % of control (dose: 50.0 micrograms/kg/injection, schedule: Q01DX011 (ip), vehicle: water) and 30 % of control (dose: 75.0 micrograms/kg/injection, schedule: Q01DX011 (ip), vehicle: water).
As to `CC1CCN2CCC(O)C12` (centres undefined), the T/C (dose: 7.0 mg/kg/injection, schedule: Q01DX011 (ip), vehicle: carboxymethylcellulose (CMC)) was 98 % of control.
As to `O=C(Nc1ccc(C2=NCCN2)cc1)c1cccc(C(=O)Nc2ccc(C3=NCCN3)cc2)c1`, the T/C by setting is: (dose: 9.0 mg/kg/injection, schedule: Q01DX011 (ip), vehicle: water) 110 % of control; (dose: 9.4 mg/kg/injection, schedule: Q01DX011 (ip), vehicle: carboxymethylcellulose (CMC)) 76 % of control; (dose: 12.0 mg/kg/injection, schedule: Q01DX011 (ip), vehicle: water) 165 % of control; under setting [5], 86 % of control; (dose: 18.0 mg/kg/injection, schedule: Q01DX011 (ip), vehicle: water) 108 % of control; (dose: 18.75 mg/kg/injection, schedule: Q01DX011 (ip), vehicle: carboxymethylcellulose (CMC)) 60 % of control. In addition, the T/C was 60 % of control (dose: 25.0 mg/kg/injection, schedule: Q01DX011 (ip), vehicle: water); 64 % of control under setting [6]; 47 % of control (dose: 37.5 mg/kg/injection, schedule: Q01DX011 (ip), vehicle: water); 59 % of control (dose: 50.0 mg/kg/injection, schedule: Q01DX011 (ip), vehicle: water); 67 % of control under setting [7]; 37 % of control (dose: 120.0 mg/kg/injection, schedule: Q01DX011 (ip), vehicle: methylcellulose (MC)).
With `O=c1[nH]cnc2c1ncn2CCCl`, the T/C is, setting by setting: under setting [8], 195 % of control; under setting [9], 150 % of control; (dose: 225.0 mg/kg/injection, schedule: Q01DX011 (ip), vehicle: methylcellulose (MC)) 120 % of control.
As to `CCn1cnc2c(=S)nc(N)[nH]c21`, the T/C by setting is: (dose: 0.44 mg/kg/injection, schedule: Q01DX011 (ip), vehicle: methylcellulose (MC)) 108 % of control; (dose: 0.88 mg/kg/injection, schedule: Q01DX011 (ip), vehicle: methylcellulose (MC)) 66 % of control; (dose: 1.75 mg/kg/injection, schedule: Q01DX011 (ip), vehicle: methylcellulose (MC)) 33 % of control; under setting [10], 3 % of control.
Regarding `CC1CN(Cc2ccco2)C(=S)N(c2ccccc2)C1=O` (centres undefined), the T/C is 81 % of control under setting [5]; 84 % of control (dose: 31.0 mg/kg/injection, schedule: Q01DX011 (ip), vehicle: methylcellulose (MC)); 99 % of control (dose: 62.0 mg/kg/injection, schedule: Q01DX011 (ip), vehicle: methylcellulose (MC)); 84 % of control (dose: 125.0 mg/kg/injection, schedule: Q01DX011 (ip), vehicle: methylcellulose (MC)); 98 % of control (dose: 250.0 mg/kg/injection, schedule: Q01DX011 (ip), vehicle: methylcellulose (MC)).
Take `CC1CCCCN1/N=N/c1nc2c([nH]1)c(=O)n(C)c(=O)n2C` (centres undefined): the T/C is, setting by setting: under setting [8], 59 % of control; under setting [9], 68 % of control.
Take `O=C(O)C1CCCN1c1ncnc2nc[nH]c12` (centres undefined): the T/C is 115 % of control (dose: 25.0 mg/kg/injection, schedule: Q01DX011 (ip), vehicle: saline) and 104 % of control (dose: 75.0 mg/kg/injection, schedule: Q01DX011 (ip), vehicle: saline).
Take `CS(=O)(=O)OCCC(=O)NCCCNC(=O)CCOS(C)(=O)=O`: the T/C by setting is: (dose: 28.0 mg/kg/injection, schedule: Q01DX011 (ip), vehicle: methylcellulose (MC)) 85 % of control; (dose: 52.0 mg/kg/injection, schedule: Q01DX011 (ip), vehicle: methylcellulose (MC)) 49 % of control.
In the case of `[I][Hg][CH2]C1OCCOC1[CH2][Hg][I]` (centres undefined), the T/C reads like this: (dose: 2.5 mg/kg/injection, schedule: Q01DX011 (ip), vehicle: carboxymethylcellulose (CMC)) 73 % of control; under setting [1], 39 % of control; under setting [2], 40 % of control; (dose: 11.0 mg/kg/injection, schedule: Q01DX011 (ip), vehicle: other) 73 % of control; (dose: 16.0 mg/kg/injection, schedule: Q01DX011 (ip), vehicle: carboxymethylcellulose (CMC)) 41 % of control; under setting [3], 30 % of control. Further, the T/C (dose: 22.0 mg/kg/injection, schedule: Q01DX011 (ip), vehicle: other) is 61 % of control; the T/C (dose: 32.0 mg/kg/injection, schedule: Q01DX011 (ip), vehicle: carboxymethylcellulose (CMC)) was 6 % of control; the T/C (dose: 44.0 mg/kg/injection, schedule: Q01DX011 (ip), vehicle: other) is 53 % of control; the T/C (dose: 66.0 mg/kg/injection, schedule: Q01DX011 (ip), vehicle: other) is 37 % of control.
On to `Cn1c(N)cc(=O)[nH]c1=S`, for which the T/C is, setting by setting: under setting [10], 98 % of control; (dose: 7.0 mg/kg/injection, schedule: Q01DX011 (ip), vehicle: methylcellulose (MC)) 40 % of control; under setting [5], 65 % of control; under setting [6], 79 % of control; under setting [7], 29 % of control.
Take `COc1cc(C(=O)[O][Hg][CH2]C2CC(O)CC([CH2][Hg][O]C(=O)c3cc(OC)c(OC)c(OC)c3)O2)cc(OC)c1OC` (centres undefined): the T/C under setting [4] is 61 % of control.
Turning to `[N-]=[N+]=CC(=O)NCC(=O)NN`, the T/C by setting is: (dose: 62.5 mg/kg/injection, schedule: Q01DX011 (ip), vehicle: saline) 115 % of control; (dose: 250.0 mg/kg/injection, schedule: Q01DX011 (ip), vehicle: saline) 39 % of control; (dose: 500.0 mg/kg/injection, schedule: Q01DX011 (ip), vehicle: saline) 43 % of control.

These data come from PubChem BioAssay AID180 (DTP/NCI, 2004).
